We go through 39 compounds from US20090170813A1, “Hypophosphorous Acid Derivatives and their Therapeutical Applications” (priority 2005, published 2009).

This assay addresses T1, rat mGlu4 (Rattus norvegicus, UniProt P31423).
T1 construct: expressed in transfected cells; host or cells: HEK293
The assay is described as follows: Agonist activity, [3H]phosphatidylinositol accumulation in HEK293 cells transfected with rat mGlu4 and Gqi9. It is filed as cell-based. The following applies: for EC50: Table 2, n in brackets, read-out: mGlu4 EC50 μM (n); for mGlu4 agonist character (partial): Table 2, remark beside EC50. The protocol:
Agonist activity of the compounds was tested on HEK293 cells transiently transfected with rat mGlu4 expressing plasmid pRKG4 and chimeric G-protein Gqi9 by electroporation, as described by Gomeza, J. et al, Mol. Pharmacol; 1996, 50, 923-930.
Cells were plated in 96-well culture plates and labeled overnight with [^3H]myoinositol. The day after, cells were washed three times with Krebs buffer, incubated for 10 min with LiCl 5 mM, and then incubated for 30 min in the absence (basal) or in the presence of the indicated compounds at 1 nM up to 1000 μM. The total amount of [^3H]phosphatidylinositol accumulated in the cells was determined after Dowex purification as previously by Goudet C, et al, Prod. Natl. Acad. Sci. USA 2004, 101, 378-383.
The response dosis curves were adjusted by using equatrier y=[(Ymax−ymin)/(1+(x/EC50)^n)]+ymin where EC50 is the concentration necessary for obtaining half of the maximal effect and n is Hill coefficient.

SMILES strings stand for the structures. Some results are limits rather than exact numbers.

T1 sequence (P31423 33-912): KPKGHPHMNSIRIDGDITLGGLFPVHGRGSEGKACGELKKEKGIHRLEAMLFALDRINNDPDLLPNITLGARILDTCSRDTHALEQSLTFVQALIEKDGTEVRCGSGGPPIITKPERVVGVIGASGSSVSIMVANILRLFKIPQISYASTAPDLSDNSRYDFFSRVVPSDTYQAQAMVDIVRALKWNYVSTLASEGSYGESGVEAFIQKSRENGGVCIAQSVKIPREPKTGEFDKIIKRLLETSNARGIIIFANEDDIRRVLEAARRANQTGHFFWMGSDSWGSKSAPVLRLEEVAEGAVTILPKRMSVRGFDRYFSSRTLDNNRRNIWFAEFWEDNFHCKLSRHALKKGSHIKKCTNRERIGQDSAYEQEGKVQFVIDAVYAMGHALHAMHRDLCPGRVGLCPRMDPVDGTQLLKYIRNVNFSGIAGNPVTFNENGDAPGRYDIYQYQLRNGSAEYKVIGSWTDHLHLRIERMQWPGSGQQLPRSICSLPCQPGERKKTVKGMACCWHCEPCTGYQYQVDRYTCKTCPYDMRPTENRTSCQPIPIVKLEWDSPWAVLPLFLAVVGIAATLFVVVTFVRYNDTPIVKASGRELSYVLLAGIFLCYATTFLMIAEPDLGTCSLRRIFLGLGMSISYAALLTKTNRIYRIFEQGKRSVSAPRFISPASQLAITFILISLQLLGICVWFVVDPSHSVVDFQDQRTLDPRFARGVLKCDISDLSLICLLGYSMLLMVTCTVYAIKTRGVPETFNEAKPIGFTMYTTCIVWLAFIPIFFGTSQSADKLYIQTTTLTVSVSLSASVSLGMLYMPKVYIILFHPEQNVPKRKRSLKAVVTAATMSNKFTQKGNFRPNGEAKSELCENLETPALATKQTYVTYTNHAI

Regarding `N[C@@H](CCP(=O)(O)C(O)C1CC1C(=O)O)C(=O)O` (single isomer, unassigned) [CS158], the EC50 amounted to 5.1 µM.

For the compound `N[C@@H](CCP(=O)(O)C(O)C1CC1C(=O)O)C(=O)O` (single isomer, unassigned) [CS159], the “mGlu4 agonist character (partial)” value is recorded as “partial” and the EC50 worked out at 12.9 µM.

With `N[C@@H](CCP(=O)(O)CCC(=O)O)C(=O)O` [Compound 7, (3S)-3-[((3-Amino-3-carboxy)propyl)(hydroxy)phosphinyl]propanoic Acid], the EC50 worked out at 6.4 µM.

Turning to `NC(CCP(=O)(O)C(CC(=O)O)C(=O)O)C(=O)O` (centres unmarked) [Compound 11], the EC50 was determined as 59 µM.

As for `NC(CP(=O)(O)CCC(=O)O)C(=O)O` (centres unmarked) [Compound 14], the “mGlu4 activity at 100 μM” value was “inactive at 100 μM (1) . . ”.

On to `N[C@@H](CCP(=O)(O)C(CC(=O)O)CC(=O)O)C(=O)O` [Compound 16, (3S)-3-[(((3-amino-3-carboxy)propyl)(hydroxy)phosphinyl)-methyl]pentane-1,5-dioic Acid], for which the “mGlu4 % max at 100 μM” value was 10% max at 100 μM (1).

As for `N[C@@H](CCP(=O)(O)CC(CC(=O)O)C(=O)O)C(=O)O` (stereo partly drawn) [Compound 19, (3S)-2-[(((3-amino-3-carboxy)propyl)(hydroxy)phosphinyl)-methyl]butane-1,4-dioic Acid], the EC50 is 28.7 µM.

For `N[C@@H](CCP(=O)(O)C(O)c1ccccc1C(=O)O)C(=O)O` (stereo partly drawn) [Compound 22, (3S)-2-[(((3-amino-3-carboxy)propyl)(hydroxy)phosphinyl)-hydroxymethyl]benzoic Acid], the “mGlu4 activity at 100 μM” value is “inactive at 100 μM”.

Consider `N[C@@H](CCP(=O)(O)C(O)c1cccc(C(=O)O)c1)C(=O)O` (stereo partly drawn) [Compound 24, (3S)-3-[(((3-amino-3-carboxy)propyl)(hydroxy)phosphinyl)-hydroxymethyl]benzoic Acid], for which the EC50 turned out to be 20.8 µM.

As to `N[C@@H](CCP(=O)(O)CC(=O)O)C(=O)O` [Compound 26, (3S)-2-[((3-amino-3-carboxy)propyl)(hydroxy)phosphinyl]ethanoic Acid], the EC50 was found to be 3.8 µM.

Regarding `N[C@@H](CCP(=O)(O)C(CC(=O)O)C(F)(F)F)C(=O)O` (stereo partly drawn) [Compound 28, (3S)-3-[((3-amino-3-carboxy)propyl)(hydroxy)phosphinyl]-3-trifluoromethylpropanoic Acid], the “mGlu4 % max at 100 μM” value was 60% max at 100 μM (1).

Consider `C/C(=C\C(=O)O)C(O)P(=O)(O)CC[C@H](N)C(=O)O` (stereo partly drawn) [Compound 31, (3S)-4-[((3-amino-3-carboxy)propyl)(hydroxy)phosphinyl]-4-hydroxy-3-methyl-2-butenoic Acid], for which the “mGlu4 activity at 100 μM” value is “inactive at 100 μM (1)”.

With `N[C@@H](CCP(=O)(O)C1COC(=O)C1)C(=O)O` (stereo partly drawn) [Compound 36, (3S)-4-[((3-amino-3-carboxy)propyl)(hydroxy)phosphinyl]furanone], the “mGlu4 agonist character (partial)” value was “partial” and the EC50 came out at 11.5 µM.

On to `N[C@@H](CCP(=O)(O)C(O)c1ccc(C(F)(F)F)c([N+](=O)[O-])c1)C(=O)O` (some centres unmarked) [Compound 38], for which the EC50 turned out to be 0.28 µM.

As to `N[C@@H](CCP(=O)(O)C(O)c1ccc(C(=O)O)cc1)C(=O)O` (stereo partly drawn) [Compound 40, (3S)-4-[(((3-amino-3-carboxy)propyl)(hydroxy)phosphinyl)-hydroxymethyl]benzoic Acid], the EC50 came out at 31.8 µM.

For the compound `N[C@@H](CCP(=O)(O)CCP(=O)(O)O)C(=O)O` [Compound 42, (3S)-3-[((3-Amino-3-carboxy)propyl)(hydroxy)phosphinyl]ethylphosphonate], the “mGlu4 % max at 100 μM” value is given as 40% max at 100 μM (1).

Turning to `N[C@@H](CCP(=O)(O)C(CC(=O)O)CP(=O)(O)O)C(=O)O` (some centres unmarked) [Compound 44], the “mGlu4 % max at 100 μM” value was 33% max at 100 μM (1).

With `N[C@@H](CCP(=O)(O)Cc1cccc(C(=O)O)c1)C(=O)O` [Compound 46, (3S)-3-[(((3-amino-3-carboxy)propyl)(hydroxy)phosphinyl)-methyl]benzoic Acid], the “mGlu4 % max at 100 μM” value was 33% max at 100 μM (1).

As for `N[C@@H](CCP(=O)(O)CCCC(=O)O)C(=O)O` [Compound 48, (3S)-4-[((3-Amino-3-carboxy)propyl)(hydroxy)phosphinyl]butanoic Acid], the “mGlu4 % max at 100 μM” value is 80% max at 100 μM (1).

Take `N[C@@H](CCP(=O)(O)C(O)c1ccc(F)c([N+](=O)[O-])c1)C(=O)O` (some centres unmarked) [Compound 50]: the half-maximal effective concentration (EC50) is 1.02 µM.

Turning to `Cc1ccc(C(O)P(=O)(O)CC[C@H](N)C(=O)O)cc1[N+](=O)[O-]` (some centres unmarked) [Compound 52], the EC50 was found to be 1.69 µM.

`N[C@@H](CCP(=O)(O)C(O)c1ccc(C(F)(F)F)cc1)C(=O)O` (some centres unmarked) [Compound 54]: the EC50 was found to be 22.2 µM.

In the case of `N[C@@H](CCP(=O)(O)C(O)c1cccc([N+](=O)[O-])c1)C(=O)O` (stereo partly drawn) [Compound 56, (3S)-3-[(((3-amino-3-carboxy)propyl)(hydroxy)phosphinyl)-hydroxymethyl] 3-nitrobenzene], the EC50 turned out to be 0.63 µM.

Regarding `COc1ccc(C(O)P(=O)(O)CC[C@H](N)C(=O)O)cc1[N+](=O)[O-]` (stereo partly drawn) [Compound 58, (3S)-3-[(((3-amino-3-carboxy)propyl)(hydroxy)phosphinyl)-hydroxymethyl] 3-nitro-4-methoxybenzene], the EC50 worked out at 2.89 µM.

In the case of `NC(CCP(=O)(O)CCCCC(=O)O)C(=O)O` (centres unmarked) [Compound 60, 5-[((3-Amino-3-carboxy)propyl)(hydroxy)phosphinyl]pentanoic Acid], the “mGlu4 activity at 100 μM” value was “inactive at 100 μM (1)”.

Take `N[C@@H](CCP(=O)(O)C(O)c1ccc(O)c([N+](=O)[O-])c1)C(=O)O` (stereo partly drawn) [Compound 62, (3S)-3-[(((3-amino-3-carboxy)propyl)(hydroxy)phosphinyl)-hydroxymethyl]-6-hydroxy-1-nitrobenzene]: the EC50 was 2 µM.

For the compound `COc1cc(C(O)P(=O)(O)CC[C@H](N)C(=O)O)cc([N+](=O)[O-])c1O` (stereo partly drawn) [Compound 64, (3S)-3-[(((3-amino-3-carboxy)propyl)(hydroxy)phosphinyl)-hydroxymethyl]-5-methoxy-6-hydroxy-1-nitrobenzene], the EC50 was 1.5 µM.

For the compound `N[C@@H](CCP(=O)(O)C(O)c1ccc(Cl)c([N+](=O)[O-])c1)C(=O)O` (stereo partly drawn) [Compound 66, (3S)-3-[(((3-amino-3-carboxy)propyl)(hydroxy)phosphinyl)-hydroxymethyl]-6-chloro-1-nitrobenzene], the EC50 is 2.74 µM.

For the compound `N[C@@H](CCP(=O)(O)C(O)c1ccc(N2CCOCC2)c([N+](=O)[O-])c1)C(=O)O` (stereo partly drawn) [Compound 68, (3S)-3-[(((3-amino-3-carboxy)propyl)(hydroxy)phosphinyl)-hydroxymethyl]-6-morpholino-1-nitro benzene], the EC50 is > 100 µM.

In the case of `N[C@@H](CCP(=O)(O)C(O)c1ccc([N+](=O)[O-])cc1[N+](=O)[O-])C(=O)O` (stereo partly drawn) [Compound 70, (3S)-4-[(((3-amino-3-carboy)propyl)(hydroxy)phosphinyl)-hydroxymethyl]-1,3-dinitrobenzene], the EC50 worked out at 1 µM.

As to `N[C@@H](CCP(=O)(O)C(O)c1ccc([N+](=O)[O-])cc1)C(=O)O` (stereo partly drawn) [Compound 72, (3S)-4-[(((3-amino-3-carboxy)propyl)(hydroxy)phosphinyl)-hydroxymethyl] nitrobenzene], the EC50 worked out at 0.93 µM.

With `CS(=O)(=O)c1ccc(C(O)P(=O)(O)CC[C@H](N)C(=O)O)cc1` (stereo partly drawn) [Compound 74, (3S)-4-[(((3-amino-3-carboxy)propyl)(hydroxy)phosphinyl)-hydroxymethyl]methylsulphonylbenzene], the EC50 is > 100 µM.

On to `N[C@@H](CCP(=O)(O)C(O)c1cc([N+](=O)[O-])cc([N+](=O)[O-])c1O)C(=O)O` (stereo partly drawn) [Compound 76, (3S)-3-[(((3-amino-3-carboxy)propyl)(hydroxy)phosphinyl)-hydroxymethyl] 2-hydroxy-1,5-dinitrobenzene], for which the EC50 was 2.3 µM.

As for `N[C@@H](CCP(=O)(O)C(O)c1cccc([N+](=O)[O-])c1O)C(=O)O` (stereo partly drawn) [Compound 78, (3S)-3-[(((3-amino-3-carboxy)propyl)(hydroxy)phosphinyl)-hydroxymethyl] 2-hydroxy-nitrobenzene], the EC50 amounted to 15.2 µM.

As for `N[C@@H](CCP(=O)(O)C(O)c1c(F)c(F)c(F)c(F)c1F)C(=O)O` (stereo partly drawn) [Compound 80, (3S)-1-[(((3-amino-3-carboxy)propyl)(hydroxy)phosphinyl)-hydroxymethyl] 2,3,4,5,6-pentafluorobenzene], the EC50 is 5.19 µM.

In the case of `N[C@@H](CCP(=O)(O)C(O)c1cc([N+](=O)[O-])ccc1O)C(=O)O` (stereo partly drawn) [Compound 82, (3S)-3-[(((3-amino-3-carboxy)propyl)(hydroxy)phosphinyl)-hydroxymethyl] 4-hydroxy-nitrobenzene], the EC50 is 1.17 µM.

Take `N[C@@H](CCP(=O)(O)C(O)c1ccc([N+](=O)[O-])o1)C(=O)O` (stereo partly drawn) [Compound 84, (3S)-2-[(((3-amino-3-carboxy)propyl)(hydroxy)phosphinyl)-hydroxymethyl] 5-nitrofuran]: the EC50 was 0.087 µM.

Take `N[C@@H](CCP(=O)(O)C(O)c1ccc([N+](=O)[O-])s1)C(=O)O` (stereo partly drawn) [Compound 86, (3S)-2-[(((3-amino-3-carboxy)propyl)(hydroxy)phosphinyl)-hydroxymethyl] 5-nitrothiophene]: the EC50 was 0.31 µM.

For `N[C@@H](CCP(=O)(O)C(O)c1ccc(C(F)(F)F)o1)C(=O)O` (stereo partly drawn) [Compound 88, (3S)-2-[(((3-amino-3-carboxy)propyl)(hydroxy)phosphinyl)-hydroxymethyl] 5-trifluoromethylfuran], the EC50 amounted to 1.98 µM.
